Source: US9603834B2, “1,2- bis-sulfonamide derivatives as chemokine receptor modulators” (Allergan, Inc., priority 2010, dated 2017)

These molecules were tested against CCR2 (Homo sapiens (Human), UniProt P41597) (assay: Calcium activity on FLIPR Tetra in HEK-Gqi5 cells stably expressing CCR2). Details: FLIPR Tetra calcium assay.
Chain of CCR2 (P41597 whole entry, species assumed): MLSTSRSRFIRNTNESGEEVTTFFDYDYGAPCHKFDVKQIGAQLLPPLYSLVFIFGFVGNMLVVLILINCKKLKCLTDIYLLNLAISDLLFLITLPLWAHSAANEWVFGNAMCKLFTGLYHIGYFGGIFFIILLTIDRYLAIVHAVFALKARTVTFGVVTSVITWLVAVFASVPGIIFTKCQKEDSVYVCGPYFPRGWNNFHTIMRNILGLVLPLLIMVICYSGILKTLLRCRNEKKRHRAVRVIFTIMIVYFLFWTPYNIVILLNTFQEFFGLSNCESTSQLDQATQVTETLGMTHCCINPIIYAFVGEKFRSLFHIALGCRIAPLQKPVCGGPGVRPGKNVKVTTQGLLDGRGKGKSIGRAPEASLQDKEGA
Type: cell-based
Procedure: HEK-Gqi5 cells stably expressing CCR2 were cultured in (DMEM high glucose, 10% FBS, 1% PSA, 400 μg/ml geneticin and 50 μg/ml hygromycin. Appropriate positive control chemokines (MCP-1, MIP1A or RANTES) was used as the positive control agonist for screening compound-induced calcium activity assayed on the FLIPR^Tetra. The drug plates were prepared in 384-well microplates using the EP3 and the MultiPROBE robotic liquid handling systems. Compounds were synthesized and tested for CCR2 activity.
In the case of `O=S(=O)(Nc1cc(Cl)c(Cl)cc1NS(=O)(=O)c1ccc(Cl)s1)c1cccs1` [5-chloro-N-{4,5-dichloro-2-[(2-thienylsulfonyl)amino]phenyl}thiophene-2-sulfonamide], the “CCR2 % Antagonism” value is reported as 89% and the IC50 is reported as 263 nM.
With `O=S(=O)(Nc1cc(Cl)c(Cl)cc1NS(=O)(=O)c1cccs1)c1ccc(Cl)nc1` [6-chloro-N-{4,5-dichloro-2-[(2-thienylsulfonyl)amino]phenyl}pyridine-3-sulfonamide] the “CCR2 % Antagonism” value was 100% and the IC50 was 281 nM.
`Cc1cc(S(=O)(=O)Nc2cc(Cl)c(Cl)cc2NS(=O)(=O)c2cccs2)ccc1Br` [N-(2-{[(4-bromo-3-methylphenyl)sulfonyl]amino}-4,5-dichlorophenyl)thiophene-2-sulfonamide] was tested, and the “CCR2 % Antagonism” value was 91% and the IC50 was 471 nM.
With `O=S(=O)(Nc1cc(Cl)c(Cl)cc1NS(=O)(=O)c1ccc(F)cc1F)c1cccs1` [N-(4,5-dichloro-2-{[(2,4-difluorophenyl)sulfonyl]amino}phenyl)thiophene-2-sulfonamide] the “CCR2 % Antagonism” value was 89% and the IC50 was 451 nM.
In the case of `O=S(=O)(Nc1cc(Cl)c(Cl)cc1NS(=O)(=O)c1ccccc1F)c1cccs1` [N-(4,5-dichloro-2-{[(2-fluorophenyl)sulfonyl]amino}phenyl)thiophene-2-sulfonamide], the “CCR2 % Antagonism” value is reported as 67% and the IC50 is reported as 402 nM.
In the case of `O=S(=O)(Nc1cc(Cl)c(Cl)cc1NS(=O)(=O)c1cccs1)c1ccc(Cl)c(Cl)c1` [N-(4,5-dichloro-2-{[(3,4-dichlorophenyl)sulfonyl]amino}phenyl)thiophene-2-sulfonamide], the “CCR2 % Antagonism” value is reported as 79% and the IC50 is reported as 394 nM.
For `O=S(=O)(Nc1cc(Cl)c(Cl)cc1NS(=O)(=O)c1cc(Cl)cc(Cl)c1O)c1cccs1` [N-(4,5-dichloro-2-{[(3,5-dichloro-2-hydroxyphenyl)sulfonyl]amino}phenyl)thiophene-2-sulfonamide], the “CCR2 % Antagonism” value was 82% and the IC50 was 482 nM.
For `O=S(=O)(Nc1cc(Cl)c(Cl)cc1NS(=O)(=O)c1cccc(Cl)c1F)c1cccs1` [N-(4,5-dichloro-2-{[(3-chloro-2-fluorophenyl)sulfonyl]amino}phenyl)thiophene-2-sulfonamide], the “CCR2 % Antagonism” value was 96% and the IC50 was 217 nM.
In the case of `O=S(=O)(Nc1cc(Cl)c(Cl)cc1NS(=O)(=O)c1cccs1)c1cccc(Cl)c1` [N-(4,5-dichloro-2-{[(3-chlorophenyl)sulfonyl]amino}phenyl)thiophene-2-sulfonamide], the “CCR2 % Antagonism” value is reported as 90% and the IC50 is reported as 391 nM.
In the case of `O=S(=O)(Nc1cc(Cl)c(Cl)cc1NS(=O)(=O)c1ccc(Cl)cc1F)c1cccs1` [N-(4,5-dichloro-2-{[(4-chloro-2-fluorophenyl)sulfonyl]amino}phenyl)thiophene-2-sulfonamide], the “CCR2 % Antagonism” value is reported as 94% and the IC50 is reported as 361 nM.
In the case of `O=S(=O)(Nc1cc(Cl)c(Cl)cc1NS(=O)(=O)c1cccs1)c1ccc(F)cc1` [N-(4,5-dichloro-2-{[(4-fluorophenyl)sulfonyl]amino}phenyl)thiophene-2-sulfonamide], the “CCR2 % Antagonism” value is reported as 91% and the IC50 is reported as 441 nM.
For `O=S(=O)(Nc1cc(Cl)ccc1NS(=O)(=O)c1c(Cl)cccc1Cl)c1cc2ccccc2o1` [N-(5-chloro-2-{[(2,6-dichlorophenyl)sulfonyl]amino}phenyl)-1-benzofuran-2-sulfonamide], the “CCR2 % Antagonism” value was 89% and the IC50 was 478 nM.
For `O=S(=O)(Nc1cc(Cl)ccc1NS(=O)(=O)c1c(F)cccc1F)c1cc2ccccc2o1` [N-(5-chloro-2-{[(2,6-difluorophenyl)sulfonyl]amino}phenyl)-1-benzofuran-2-sulfonamide], the “CCR2 % Antagonism” value was 99% and the IC50 was 153 nM.
With `Cc1ccc(S(=O)(=O)Nc2ccc(Cl)cc2NS(=O)(=O)c2cc3ccccc3o2)s1` [N-(5-chloro-2-{[(5-methyl-2-thienyl)sulfonyl]amino}phenyl)-1-benzofuran-2-sulfonamide] the “CCR2 % Antagonism” value was 96% and the IC50 was 339 nM.
For `O=S(=O)(Nc1cccnc1NS(=O)(=O)c1cccs1)c1ccc(Cl)c(C(F)(F)F)c1` [N-[3-({[4-chloro-3-(trifluoromethyl)phenyl]sulfonyl}amino)pyridin-2-yl]thiophene-2-sulfonamide], the “CCR2 % Antagonism” value was 85% and the IC50 was 349 nM.
With `O=S(=O)(Nc1cc(Cl)c(Cl)cc1NS(=O)(=O)c1cccs1)c1cccc(C(F)(F)F)c1` [N-[4,5-dichloro-2-({[3-(trifluoromethyl)phenyl]sulfonyl}amino)phenyl]thiophene-2-sulfonamide] the “CCR2 % Antagonism” value was 88% and the IC50 was 306 nM.
In the case of `O=S(=O)(Nc1cc(Cl)c(Cl)cc1NS(=O)(=O)c1cccs1)c1ccc(F)c(C(F)(F)F)c1` [N-[4,5-dichloro-2-({[4-fluoro-3-(trifluoromethyl)phenyl]sulfonyl}amino)phenyl]thiophene-2-sulfonamide], the “CCR2 % Antagonism” value is reported as 89% and the IC50 is reported as 432 nM.
With `Cn1cnc(S(=O)(=O)Nc2ccc(Cl)cc2NS(=O)(=O)c2cc3ccccc3o2)c1` [N-{2-[(1-benzofuran-2-ylsulfonyl)amino]-4-chlorophenyl}-1-methyl-1H-imidazole-4-sulfonamide] the “CCR2 % Antagonism” value was 110% and the IC50 was 423 nM.
For `Cn1ccc(S(=O)(=O)Nc2ccc(Cl)cc2NS(=O)(=O)c2cc3ccccc3o2)n1` [N-{2-[(1-benzofuran-2-ylsulfonyl)amino]-4-chlorophenyl}-1-methyl-1H-pyrazole-3-sulfonamide], the “CCR2 % Antagonism” value was 96% and the IC50 was 185 nM.
In the case of `Cc1n[nH]c(C)c1S(=O)(=O)Nc1ccc(Cl)cc1NS(=O)(=O)c1cc2ccccc2o1` [N-{2-[(1-benzofuran-2-ylsulfonyl)amino]-4-chlorophenyl}-3,5-dimethyl-1H-pyrazole-4-sulfonamide], the “CCR2 % Antagonism” value is reported as 108% and the IC50 is reported as 183 nM.
With `Cc1nn(C)c(Cl)c1S(=O)(=O)Nc1ccc(Cl)cc1NS(=O)(=O)c1cc2ccccc2o1` [N-{2-[(1-benzofuran-2-ylsulfonyl)amino]-4-chlorophenyl}-5-chloro-1,3-dimethyl-1H-pyrazole-4-sulfonamide] the “CCR2 % Antagonism” value was 80% and the IC50 was 294 nM.
In the case of `O=S(=O)(Nc1cc(Cl)c(Cl)cc1NS(=O)(=O)c1cccs1)c1cc2ccccc2o1` [N-{4,5-dichloro-2-[(2-thienylsulfonyl)amino]phenyl}-1-benzofuran-2-sulfonamide], the “CCR2 % Antagonism” value is reported as 100% and the IC50 is reported as 96 nM.
`O=S(=O)(Nc1cc(Cl)c(Cl)cc1NS(=O)(=O)c1cc2ccccc2s1)c1cccs1` [N-{4,5-dichloro-2-[(2-thienylsulfonyl)amino]phenyl}-1-benzothiophene-2-sulfonamide] was tested, and the “CCR2 % Antagonism” value was 94% and the IC50 was 494 nM.
With `Cc1ccc(S(=O)(=O)Nc2cc(Cl)c(Cl)cc2NS(=O)(=O)c2cccs2)o1` [N-{4,5-dichloro-2-[(2-thienylsulfonyl)amino]phenyl}-5-methylfuran-2-sulfonamide] the “CCR2 % Antagonism” value was 95% and the IC50 was 311 nM.
With `O=S(=O)(Nc1ccc(Cl)cc1NS(=O)(=O)c1cccs1)c1cc2ccccc2o1` [N-{4-chloro-2-[(2-thienylsulfonyl)amino]phenyl}-1-benzofuran-2-sulfonamide] the “CCR2 % Antagonism” value was 90% and the IC50 was 145 nM.
For `O=S(=O)(Nc1cc(Cl)ccc1NS(=O)(=O)c1cccs1)c1cc2ccccc2o1` [N-{5-chloro-2-[(2-thienylsulfonyl)amino]phenyl}-1-benzofuran-2-sulfonamide], the “CCR2 % Antagonism” value was 86% and the IC50 was 20 nM.
`COC(=O)c1sccc1S(=O)(=O)Nc1ccc(Cl)cc1NS(=O)(=O)c1cc2ccccc2o1` [methyl 3-[({2-[(1-benzofuran-2-ylsulfonyl)amino]-4-chlorophenyl}amino)sulfonyl]thiophene-2-carboxylate] was tested, and the “CCR2 % Antagonism” value was 96% and the IC50 was 246 nM.
